Measurements taken from US20240050441A1, “COMBINATION THERAPIES FOR THE TREATMENT OF CANCER” (Erasca, Inc., priority 2020, published 2024).
“Also recorded” adds a separate entry of the source.

Key:
Type in all cases: cell-based
SCC-15 cells = assay: Cellular proliferation assay (CellTiter-Glo, day 5); settings: Homo sapiens, read-out: The compound of Formula I IC50, compound of Formula I alone
Procedure: (§1) The cell lines used in the study were obtained from ATCC (CAL 27 #CRL-2095, SCC-15 #CRL-1623, SCC-25 #CRL-1628, SCC-4 #CRL-1624 and SCC-9 #CRL-1629). The cell line, CAL 27 was cultured in DMEM (Gib co #). SCC-4, SCC-15, SCC-25, SCC-9 cell lines was cultured in a 1:1 mixture of DMEM and Ham's F12 medium containing 1.2 g/L sodium bicarbonate, 2.5 mM L-glutamine, 15 mM HEPES and 0.5 mM sodium pyruvate supplemented with 400 ng/ml hydrocortisone, 90%; fetal bovine serum, 10% (Hyclone #SH-30071.03) and Penicillin/Streptomycin (Thermo Fisher #15070-063). The cells were maintained at 37° C./5% CO2. Cells were washed in ice cold PBS (Thermo Fisher Scientific #10010-023) and lysed in RIPA Lysis and Extraction Buffer (Thermo Fisher Scientific #89900) supplemented with Halt Phosphatase and Protease Inhibitor (Thermo Fisher Scientific #78445). The membrane was blocked for non-specific proteins by Bovine Serum Albumin BSA (Cell Signaling Tech #9998). Antibodies for immunoblotting were as follows: phospho-p44/42 ERK1/2 (Cell Signaling Tech #4370), ERK2 antibody (Santa Cruz #sc-1647), anti-mouse IgG HRP-linked antibody (Cell Signaling Tech #7076), and anti-rabbit IgG HRP-linked antibody (Cell Signaling Tech #7074).
(§2) […] HPV-negative head and neck squamous cancer cell lines, CAL 27, SCC-4, SCC-9, SCC-15 and SCC-25 were split onto 96 well plates.

SCC-9 cells = assay: as above; settings: Homo sapiens, read-out: The compound of Formula I IC50, compound of Formula I alone
Procedure: as §1, §2

CAL 27 cells = assay: as above; settings: Homo sapiens, read-out: The compound of Formula I IC50, compound of Formula I alone
Procedure: as §1, §2

SCC-25 cells = assay: as above; settings: read-out: The compound of Formula I IC50, compound of Formula I alone
Procedure: as §1, §2

ERK1/2 phosphorylation = assay: Western blotting of phosphorylated ERK1/2 in CAL 27 cells; settings: HPV-negative CAL 27 cells; 4 hours of treatment; immunoblot, bands normalized by total ERK
Procedure: as §1, with “The membrane was blocked for non-specific proteins by Bovine Serum Albumin BSA (Cell Signaling Tech #9998). Antibodies for immunoblotting were as follows: phospho-p44/42 ERK1/2 (Cell Signaling Tech #4370), ERK2 antibody (Santa Cruz #sc-1647), anti-mouse IgG HRP-linked antibody (Cell Signaling Tech #7076), and anti-rabbit IgG HRP-linked antibody (Cell Signaling Tech #7074).” left out
Western blotting: Cells were lysed on ice for 10 minutes with Thermo Fisher RIPA lysis buffer with protease and phosphatase inhibitors. […] The supernatant was transferred to pre-chilled microcentrifuge tube and protein concentration of the lysate was measured using BCA method. […]
After 4 hours of treatment, cells were lysed and immunoblotted for phosphorylated ERK1/2. […] The phosphorylated ERK1/2 bands were quantified by using Bio-Rad Image Lab software and normalized by total ERK.

COCOC[C@H]1C[C@H]2COc3c(Sc4cnc(N5CCC6(CC5)CO[C@@H](C)[C@H]6N)c(CO)n4)ccnc3N2C1 [The compound of Formula I]
IC50 (SCC-15 cells): 1410 nM | IC50 (SCC-9 cells): 161 nM | IC50 (CAL 27 cells): 112 nM | IC50 (SCC-25 cells): 8050 nM | inhibition of ERK1/2 phosphorylation relative to DMSO treated control cells (ERK1/2 phosphorylation): approximately 50%; also recorded: about 50%
